The results in this text go back to US12042481B2, “Use of (1R,5S)-(+)-1-(naphthalen-2-yl)-3-azabicyclo[3.1.0]hexane in the treatment of conditions affected by monoamine neurotransmitters” (priority 2011, dated 2024).

For experiment [1], the target named is T1, recombinant human DA transporter (Homo sapiens, UniProt Q01959).
T1 construct: host or cells: CHO-K1
In words: Inhibition of [3H]dopamine uptake in CHO-K1 cells transfected with the DA uptake transporter. The experiment is classed as cell-based. As for the experimental part:
The ability of (1R,5S)-(+)-1-(naphthalen-2-yl)-3-azabicyclo[3.1.0]hexane for inhibiting transport of norepinephrine (NE) and/or dopamine (DA) and/or serotonin (5-HT) was evaluated using cell lines (such as the HEK 293 cell line) that stably express recombinant human NE, DA, and 5-HT transporters, respectively. Techniques for stably transfecting mammalian cell lines with neurotransmitter transporters and measuring the effects of drugs on amine uptake have been described in the literature (e.g., Eshleman A J, J Pharmacol Exp Ther 289:877-885, 1999) and are well known to those skilled in the art
Monoamine uptake was determined in MDCK, CHO-K1, and HEK-293 cell lines respectively transfected with NE, DA, and 5-HT uptake transporters by MDS Pharma Services (Taipei, Taiwan 112, R. O. C.). The cells were incubated in 5 mM Tris-HCl, and 7.5 mM HEPES buffer, pH 7.1, containing 120 mM NaCl, 5.4 mM KCl, 1.2 mM CaCl2, 1.2 mM MgSO4, 5 mM D-glucose, and 1 mM Ascorbic Acid. The cellular homogenates were incubated with radioligands and various concentrations of drugs for 10 minutes at 25° C. The [^3H]-radioligands incorporated into the cells were determined according to published methods using liquid scintillation counting (Perovic and Müller 1995; Eshleman et al., 1999). […]

In experiment [2] the test system is monoamine uptake transporters. Nature of the experiment: Microdialysis in rat striatum (extracellular DA, HVA). Type of experiment: in vivo. As for the experimental part:
To evaluate the effect of (1R,5S)-(+)-1-(naphthalen-2-yl)-3-azabicyclo[3.1.0]hexane on monoamine uptake transporters in vivo, microdialysis studies were performed in rat brain regions.
Microdialysis studies were conducted using male Wistar rats (250-300 g) bred at the Institute of Pharmacology, the Polish Academy of Sciences, Krakow, Poland. The rats (250-300 g) were housed on a 12 h/12 h light/dark cycle at a constant temperature and humidity, and were provided with food and water ad libitum. The microdialysis procedure has been previously described (Popik et al., 2006). Briefly, the rats were anaesthetized with ketamine (75 mg/kg IM) and xylazine (10 mg/kg IM), placed in a stereotaxic apparatus (David Kopf Instruments, Tujunga, CA, USA) with their skulls exposed. Small holes were drilled in the skull for insertion of the vertical microdialysis probes into the prefrontal cortex and striatum, respectively using the following coordinates: 2.9 mm anterior from the bregma, 0.8 mm lateral from the sagittal suture and −4.5 ventral from the dura surface (prefrontal cortex); 1.8 mm anterior from the bregma, 2.7 mm lateral from the sagittal suture and −7.0 mm ventral from the dura surface (striatum) (Paxinos and Watson, 1998). Microdialysis probes were constructed by inserting two fused silica tubes (30 and 35 mm long, 150 μm o.d.; Polymicro Technologies Inc., Phoenix, AZ, USA) into a microdialysis fiber (220 μm o.d.; AN69, Hospal, Bologna, Italy). The tube assembly was placed in a stainless steel cannula (22 G, 10 mm) forming the shaft of the probe. Portions of the inlet and outlet tubes were individually placed inside polyethylene PE-10 tubing and were glued for protection. The free end of the dialysis fibre was sealed, and 3 mm of the exposed length used for dialysis in prefrontal cortex and 4 mm for striatum. One day after the surgery and probe implantation, the inlet of the dialysis probes was connected to a syringe pump (BAS, IN, USA) which delivered an artificial cerebrospinal fluid (aCSF) composed of [in mM]: NaCl 145, KCl 2.7, MgCl2 1.0, CaCl2 1.2; pH=7.4 at a flow rate of 1.5 μl/min. After a two hour rinsing period to stabilize the extracellular level of neurotransmitters, 3-4 baseline samples were collected in 20 minute sampling periods. Next, (1R,5S)-(+)-1-(naphthalen-2-yl)-3-azabicyclo[3.1.0]hexane (dissolved in 0.9% saline solution) at doses of 10 or 20 mg/kg intraperioneally (i.p.) was administered to the animals at 4 ml/kg and consequent dialysate fractions were collected every 20 min for 3 hrs. At the end of the experiments the rats were sacrificed and their brains were histologically examined to validate the correct probe placement
Dopamine, and serotonin (5-HT) were analysed by HPLC with electrochemical detection. […] The flow rate was 0.5 ml/min, and the applied potential of a 3 mm glassy carbon electrode was +600 mV with a sensitivity of 2 nA/V. Norepinephrine was measured using HPLC system equipped with a P580 pump (Dionex, CA, USA) connected to a BAS injection valve with a 10 μI injection loop and a BDS-Hypersil analytical column (2.0×100 mm, a 3 μm, Thermo Electron Corp., UK). […] NE in the dialysates was detected with a BAS UniJet radial flow detector cell coupled to a LC-4B amperometric detector (BAS, IN, USA). […]

T1 sequence (Q01959 whole entry): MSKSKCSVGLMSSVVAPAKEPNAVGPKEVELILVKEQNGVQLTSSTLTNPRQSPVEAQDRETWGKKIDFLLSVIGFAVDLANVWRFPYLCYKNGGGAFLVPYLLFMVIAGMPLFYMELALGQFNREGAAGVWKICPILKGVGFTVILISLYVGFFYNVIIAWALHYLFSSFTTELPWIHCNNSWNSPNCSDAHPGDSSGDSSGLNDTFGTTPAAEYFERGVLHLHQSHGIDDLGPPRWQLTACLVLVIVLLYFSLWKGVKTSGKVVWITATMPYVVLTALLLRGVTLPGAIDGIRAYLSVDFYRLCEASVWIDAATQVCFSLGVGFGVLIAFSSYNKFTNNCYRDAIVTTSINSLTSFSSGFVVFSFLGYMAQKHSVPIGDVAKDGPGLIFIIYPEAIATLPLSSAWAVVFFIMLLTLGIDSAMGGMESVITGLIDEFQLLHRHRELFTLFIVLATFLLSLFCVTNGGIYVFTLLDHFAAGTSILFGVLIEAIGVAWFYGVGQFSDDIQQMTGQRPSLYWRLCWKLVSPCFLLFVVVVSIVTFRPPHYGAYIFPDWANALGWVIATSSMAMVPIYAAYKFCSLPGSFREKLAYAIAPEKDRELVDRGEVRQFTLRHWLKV

What is called IC50 is the point on the concentration scale where inhibition reaches its midpoint. For the molecule `c1ccc2cc([C@]34CNC[C@H]3C4)ccc2c1` [(1R,5S)-(+)-1-(naphthalen-2-yl)-3-azabicyclo[3.1.0]hexane], the IC50 in experiment [1] was 38 nM. In addition, in experiment [2], the “duration of effect on extracellular DA” value is listed as “over 3 hours”, the “effect on extracellular concentrations of HVA (metabolite of DA)” value is given as “decreased” and the “time within which extracellular DA was markedly increased” value was ≤ 40 min. Besides, the “peak increase of extracellular DA” value in experiment [2] (10 mg/kg i.p.) is recorded as “over 275 % of baseline”. Moreover, in experiment [2] (20 mg/kg i.p.), the “peak increase of extracellular DA” value is on record as > 375 % of baseline.
